Laboratory results reported in ChEMBL document CHEMBL1817541, “Synthesis and Evaluation of the α-D-/α-L-Rhamnosyl and Amicetosyl Digitoxigenin Oligomers as Anti-tumor Agents” (ACS Med Chem Lett, 2011).
pIC50: −log10 of the molar value.

Legend:
Type in all cases: functional
NCI-H460 [1] = test: Cytotoxicity against human NCI-H460 cells in serum free medium assessed as cell death at 10 uM after 12 hrs by Hoechst 33342/propidium iodide staining based fluorescence microscopy
NCI-H460 [2] = test: Cytotoxicity against human NCI-H460 cell assessed as cell death after 12 hrs by Hoechst 33342/propidium iodide staining based fluorescence microscopy; settings: NCI-H460, 12 h
NCI-H460 [3] = test: Cytotoxicity against human NCI-H460 cell assessed as cell death at 1 uM after 12 hrs by Hoechst 33342/propidium iodide staining based fluorescence microscopy
NCI-H460 [4] = test: Cytotoxicity against human NCI-H460 cell assessed as cell death at 100 uM after 12 hrs by Hoechst 33342/propidium iodide staining based fluorescence microscopy
NCI-H460 [5] = test: Cytotoxicity against human NCI-H460 cell assessed as cell death at 100 nM after 12 hrs by Hoechst 33342/propidium iodide staining based fluorescence microscopy
NCI-H460 [6] = test: Cytotoxicity against human NCI-H460 cell assessed as cell death at 500 nM after 12 hrs by Hoechst 33342/propidium iodide staining based fluorescence microscopy
NCI-H460 [7] = test: Cytotoxicity against human NCI-H460 cell assessed as cell death at 50 nM after 12 hrs by Hoechst 33342/propidium iodide staining based fluorescence microscopy
NCI-H460 [8] = test: Cytotoxicity against human NCI-H460 cell assessed as cell death at 10 nM after 12 hrs by Hoechst 33342/propidium iodide staining based fluorescence microscopy
NCI-H460 [9] = test: Induction of apoptosis in human NCI-H460 cells in at 50 nM after 12 hrs by Hoechst 33342/propidium iodide staining based fluorescence microscopy

| Structure (SMILES) | Activity (NCI-H460 [1]) [%] | pIC50 (NCI-H460 [2]) | Activity (NCI-H460 [3]) [%] | Activity (NCI-H460 [4]) [%] | Activity (NCI-H460 [5]) [%] | Activity (NCI-H460 [6]) [%] | Activity (NCI-H460 [7]) [%] | Activity (NCI-H460 [8]) [%] | Activity (NCI-H460 [9]) [%] |
| --- | --- | --- | --- | --- | --- | --- | --- | --- | --- |
| C[C@@H]1O[C@@H](O[C@@H]2CC[C@H](O[C@@H]3CC[C@H](O[C@H]4CC[C@@]5(C)[C@H](CC[C@@H]6[C@@H]5CC[C@]5(C)[C@@H](C7=CC(=O)OC7)CC[C@]65O)C4)O[C@H]3C)O[C@H]2C)CC[C@H]1O | 70.17 | 5.40 | 25.85 | 91.74 | 11.8 | 16.46 | 10.85 | 8.34 |  |
| C[C@H]1O[C@H](O[C@H]2[C@H](O)[C@H](O)[C@@H](O[C@H]3CC[C@@]4(C)[C@H](CC[C@@H]5[C@@H]4CC[C@]4(C)[C@@H](C6=CC(=O)OC6)CC[C@]54O)C3)O[C@@H]2C)[C@@H](O)[C@@H](O)[C@@H]1O | 58.09 | 5.37 | 14.52 | 73.4 | 9.87 | 11.06 | 7.37 | 6.36 |  |
| C[C@H]1O[C@H](O[C@H]2CC[C@@]3(C)[C@H](CC[C@@H]4[C@@H]3CC[C@]3(C)[C@@H](C5=CC(=O)OC5)CC[C@]43O)C2)CC[C@@H]1O[C@@H]1CC[C@H](O)[C@@H](C)O1 | 50.25 | 5.22 | 15.99 | 71.1 | 11.49 | 12.91 | 10.01 | 9.06 |  |
| C[C@@H]1O[C@@H](O[C@@H]2[C@@H](O)[C@@H](O)[C@H](O[C@H]3CC[C@@]4(C)[C@H](CC[C@@H]5[C@@H]4CC[C@]4(C)[C@@H](C6=CC(=O)OC6)CC[C@]54O)C3)O[C@H]2C)[C@H](O)[C@H](O)[C@H]1O | 100 | 6.44 | 92.06 | 100 | 20.51 | 62.95 | 16.8 | 12.68 |  |
| C[C@@H]1O[C@@H](O[C@@H]2CC[C@H](O[C@H]3CC[C@@]4(C)[C@H](CC[C@@H]5[C@@H]4CC[C@]4(C)[C@@H](C6=CC(=O)OC6)CC[C@]54O)C3)O[C@H]2C)CC[C@H]1O | 100 | 6.29 | 94.59 | 100 | 18.03 | 53.76 | 14.89 | 8.73 |  |
| C[C@H]1O[C@H](O[C@H]2[C@H](O)[C@H](O)[C@@H](O[C@H]3[C@H](O)[C@H](O)[C@@H](O[C@H]4CC[C@@]5(C)[C@H](CC[C@@H]6[C@@H]5CC[C@]5(C)[C@@H](C7=CC(=O)OC7)CC[C@]65O)C4)O[C@@H]3C)O[C@@H]2C)[C@@H](O)[C@@H](O)[C@@H]1O | 28.42 | 4.74 | 8.37 | 59.91 | 7.17 | 7.99 | 6.85 | 6.44 |  |
| C[C@H]1O[C@H](O[C@H]2CC[C@@]3(C)[C@H](CC[C@@H]4[C@@H]3CC[C@]3(C)[C@@H](C5=CC(=O)OC5)CC[C@]43O)C2)CC[C@@H]1O[C@@H]1CC[C@H](O[C@@H]2CC[C@H](O)[C@@H](C)O2)[C@@H](C)O1 | 26.48 | 4.48 | 9.84 | 53.1 | 8.57 | 9.11 | 7.85 | 6.55 |  |
| C[C@H]1O[C@H](O[C@H]2CC[C@@]3(C)[C@H](CC[C@@H]4[C@@H]3CC[C@]3(C)[C@@H](C5=CC(=O)OC5)CC[C@]43O)C2)[C@@H](O)[C@@H](O)[C@@H]1O | 95.72 | 6.15 | 71.67 | 100 | 12.28 | 35.05 | 12.14 | 7.85 | 45.71 |
| C[C@@H]1O[C@@H](O[C@H]2CC[C@@]3(C)[C@H](CC[C@@H]4[C@@H]3CC[C@]3(C)[C@@H](C5=CC(=O)OC5)CC[C@]43O)C2)[C@H](O)[C@H](O)[C@H]1O | 100 |  | 100 | 100 | 96.96 | 100 | 60.56 | 17.04 | 48.64 |
| C[C@@H]1O[C@@H](O[C@@H]2[C@@H](O)[C@@H](O)[C@H](O[C@@H]3[C@@H](O)[C@@H](O)[C@H](O[C@H]4CC[C@@]5(C)[C@H](CC[C@@H]6[C@@H]5CC[C@]5(C)[C@@H](C7=CC(=O)OC7)CC[C@]65O)C4)O[C@H]3C)O[C@H]2C)[C@H](O)[C@H](O)[C@H]1O | 94.07 | 5.87 | 43.65 | 100 | 15.21 | 38.97 | 12.17 | 10.71 |  |
